SMILES strings stand for the structures.

Holding throughout (assay type): physicochemical
Data set [1] in a line: Accelerated stability 40° C./75% RH in heat-sealed envelope. As to conditions: accelerated stability conditions. How it is done: (§1) The stability of the mannitol in the form of powder object of the present invention was tested, housed inside a heat-sealed envelope in compostable material. 50 grams of said powder were stored for 6 months at 40° C./75% RH (Test 1) and for 6 months at 25° C./60% RH (Test 2). Checks were made of the parameters indicated in Tables 8 and 9 following the times T0-T6 identified as: T0=moment of insertion of the air-conditioned environment, T1=after one month from the moment T0, T2=after two months from the moment T0, T3=after three months from the time T0, T4=after four months from the time T0, T5=after five months from the time T0, T6=after six months from the time T0.

Data set [2] in a line: Dissolution study of mannitol powder in non-carbonated commercial waters. The following applies: 150 g of mannitol in 900 ml of water, weakly acidic or neutral pH. From the text: The solubility of the mannitol powder was then studied in the following three types of non-carbonated commercial waters: • Sangemini: PH at source 6.2; • Antica Fonte Boario: PH at source 7.0; • Panna Toscana: pH at source 8.0.

Data set [3] in a line: Bulk density (Ph. Eur. 2.2.42). Here is the method: As regards the bulk density outlined above, in particular the poured bulk density, such parameter is measured according to the European Pharmacopoeia reference standard (Ph. EUR.), current edition 2.2.42, in force at the priority date of this patent application. In the context of the present invention, the expression “bulk” implies that the powder density value is calculated in a manner formally analogous to an absolute density (such as for a solid body or for a liquid). However, since a powder has empty inter-particle spaces, the total volume occupied by the powder (i.e. its outer bulk), thus including the inter-particle spaces between the various particles, should be taken into account when evaluating bulk density. More precisely, according to the aforementioned standard, a 100 ml class A graduated flask is filled and brought to volume with the powder particles, after which the bulk density is calculated as the ratio between the weight of the powder inside the flask and the volume (100 ml) occupied by that weight of the powder particles. Mannitol powder is a poorly flowing powder, which has a certain tendency, just like all fine powders, to agglomerate under pressure. […]

The nature of data set [4]: Long term stability 25° C./60% RH in heat-sealed envelope. The following applies: long-term stability in the climatic area II. How it is done: as §1

Take `OC[C@@H](O)[C@@H](O)[C@H](O)[C@H](O)CO` [mannitol, Mannitol]: the “measured parameters over the test” value in data set [1] and in data set [4] was “remained stable” in each case. In data set [2], the complete dissolution time entry is given as “more than 6 minutes”. Moreover, the transient density entry in data set [3] (after passing through 3 mm mesh of the sieve shaker, measured in the laboratory) is reported as “about 0.73 g/ml”. In addition, in data set [3] (coherent mass before the drum centrifugal sieve shaker), the poured bulk density entry was “about 0.60 g/ml”.
